Assay results reported in patent US20240351986A1, “UREA COMPOUND CONTAINING 2-HETEROAROMATIC RING SUBSTITUTION, PREPARATION METHOD THEREFOR AND USE THEREOF” (SHANGHAI INSTITUTE OF MATERIA MEDICA, CHINESE ACADEMY OF …, priority 2021, published 2024).

Biological target: T1, Recombinant human CDK9/cyclin T1 (Homo sapiens, UniProt P50750)
T1 construct: purchased Carna bioscience 04-110
Test: CDK9 enzyme inhibitory activity (ADP-Glo kinase assay)
Format: biochemical
Conditions: CDK9 enzyme activity, average of two independent repeats; for inhibition at 0.01 µM: compound 10 nM, read-out: Inhibition rate at different concentrations (%) 10 nM; for inhibition at 0.1 µM: compound 100 nM, read-out: Inhibition rate at different concentrations (%) 100 nM
Description: Experimental method: Recombinant human CDK9/cyclin T1 (Carna bioscience, Cat #04-110) was diluted with dilution buffer (20 mM Tris HCl (pH 7.5), 0.02% Triton X-100, 0.01% BSA, 2 mM DTT, 0.5 mM Na3VO4, 10% Glycerol) to […], the substrates CDK7/9 tide (ThermoFisher, Cat #PV5090) and ATP (sigmaaldrich, Cat #A1852) were diluted with assay buffer (25 mM Tris HCl (pH7.5), 10 mM MgCl2, 0.5 mM EGTA (pH 8), 0.5 mM Na3VO4, 5 mMb-glycerol phosphate, 0.1% Triton X-100, 2.5 mM DTT) to final concentrations of 100 μM and […] respectively, aliquot and set aside. 2 μl of diluted recombinant human CDK9/cyclin T1, 1 μl of test compound, and 2 μl of diluted substrate CDK7/9 tide containing ATP were added to the 384-well plate. […] The positive control was the well in which enzyme and substrate were co-incubated, and the negative control was the well in which dilution buffer and substrate were co-incubated. The inhibition rate was calculated according to the following formula.

T1 sequence (P50750 whole entry): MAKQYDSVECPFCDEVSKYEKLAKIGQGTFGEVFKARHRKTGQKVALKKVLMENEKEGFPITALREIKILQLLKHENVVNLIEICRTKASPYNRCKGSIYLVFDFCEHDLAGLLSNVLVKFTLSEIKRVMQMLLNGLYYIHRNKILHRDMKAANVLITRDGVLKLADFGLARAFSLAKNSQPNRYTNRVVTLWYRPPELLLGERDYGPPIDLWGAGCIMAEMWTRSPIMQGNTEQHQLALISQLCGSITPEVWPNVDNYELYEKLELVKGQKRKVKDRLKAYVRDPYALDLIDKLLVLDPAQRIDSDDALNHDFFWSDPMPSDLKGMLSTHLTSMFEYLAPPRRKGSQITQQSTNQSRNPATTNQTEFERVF
T1 sequence (O60563 whole entry partner): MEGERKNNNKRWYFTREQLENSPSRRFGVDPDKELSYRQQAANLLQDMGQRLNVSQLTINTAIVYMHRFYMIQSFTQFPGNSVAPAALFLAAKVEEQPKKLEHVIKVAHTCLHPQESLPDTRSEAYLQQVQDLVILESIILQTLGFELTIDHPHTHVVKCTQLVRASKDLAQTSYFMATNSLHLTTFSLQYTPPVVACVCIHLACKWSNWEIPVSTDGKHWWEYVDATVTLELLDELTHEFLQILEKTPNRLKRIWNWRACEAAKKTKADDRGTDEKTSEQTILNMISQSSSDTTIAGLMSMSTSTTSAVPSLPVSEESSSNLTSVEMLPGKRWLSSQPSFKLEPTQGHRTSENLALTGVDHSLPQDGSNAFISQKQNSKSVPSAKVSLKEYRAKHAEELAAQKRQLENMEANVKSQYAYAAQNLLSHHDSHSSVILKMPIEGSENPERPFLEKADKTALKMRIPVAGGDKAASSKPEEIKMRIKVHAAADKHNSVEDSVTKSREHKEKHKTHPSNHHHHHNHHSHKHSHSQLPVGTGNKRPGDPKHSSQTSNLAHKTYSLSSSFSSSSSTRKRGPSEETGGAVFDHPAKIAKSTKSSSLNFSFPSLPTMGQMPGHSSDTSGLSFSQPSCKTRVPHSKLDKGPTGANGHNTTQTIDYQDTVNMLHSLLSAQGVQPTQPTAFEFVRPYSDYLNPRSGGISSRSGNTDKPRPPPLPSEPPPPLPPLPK

inhibition at 0.01 µM	inhibition at 0.1 µM	Structure (SMILES)
63%	92%	CC(=O)N[C@H]1CC[C@H](NC(=O)Nc2cc(-c3cnn4c3CC(C)(C)C4)c(Cl)cn2)C1 (stereo in doubt) [Example 74, N-((1S,3S)-3-(3-(5-chloro-4-(5,5-dimethyl-5,6-dihydro-4H-pyrrolo[1,2-b]pyrazol-3-yl)pyridin-2-yl)ureido)cyclopentyl)acetamide]
48.5%	97.3%	COc1cc(F)ccc1-c1ccnc(NC(=O)NC2CCC(NC(=O)OC(C)(C)C)CC2)c1 (stereo not drawn) [Example 1, tert-butyl((1r,4r)-4-(3-(4-(4-fluoro-2-methoxyphenyl)pyridin-2-yl)ureido)cyclohexyl) carbamate]
45.1%	93.2%	COc1cc(F)ccc1-c1ccnc(NC(=O)NC2CCC(NC(C)=O)CC2)c1 (stereo not drawn) [Example 4, N-((1r,4r)-4-(3-(4-(4-fluoro-2-methoxyphenyl)pyridin-2-yl)ureido)cyclohexyl)acetamide]
46.2%	88.2%	COc1cc(F)c(F)cc1-c1ccnc(NC(=O)NC2CCC(N)CC2)c1 (stereo not drawn) [Example 5, 1-((1r,4r)-4-aminocyclohexyl)-3-(4-(4,5-difluoro-2-methoxyphenyl)pyridin-2-yl)urea]
32%	74.1%	COc1cc(-c2ccnc(NC(=O)NC3CCC(N)CC3)c2)ccc1F (stereo not drawn) [Example 6, 1-((1r,4r)-4-aminocyclohexyl)-3-(4-(4-fluoro-3-methoxyphenyl)pyridin-2-yl)urea]
34.3%	81.1%	COc1cc(-c2ccnc(NC(=O)NC3CCC(N)CC3)c2)c(F)cc1F (stereo not drawn) [Example 7, 1-((1r,4r)-4-aminocyclohexyl)-3-(4-(2,4-difluoro-5-methoxyphenyl)pyridine-2-yl)urea]
23.1%	61.3%	NC1CCC(NC(=O)Nc2cc(-c3ccc(F)c4ccoc34)ccn2)CC1 (stereo not drawn) [Example 8, 1-((1r, 4r)-4-aminocyclohexyl)-3-(4-(4-fluoro-benzofuran-7-yl)pyridin-2-yl) urea]
23%	55.1%	CC(C)c1c2cc(-c3ccnc(NC(=O)NC4CCC(N)CC4)c3)ccc2nn1C (stereo not drawn) [Example 9, 1-((1r,4r)-4-aminocyclohexyl)-3-(4-(3-isopropyl-2-methyl-2H-indazol-5-yl)pyridin-2-yl)urea]
-12.6%	94.6%	NC1CCC(NC(=O)Nc2cc(-c3ccc(F)cc3Cl)ccn2)CC1 (stereo not drawn) [Example 10, 1-((1r,4r)-4-aminocyclohexyl)-3-(4-(2-chloro-4-fluorophenyl)pyridin-2-yl) urea]
24.7%	93.4%	COCCNC1CCC(NC(=O)Nc2cc(-c3ccc(F)cc3Cl)ccn2)CC1 (stereo not drawn) [Example 11, 1-(4-(2-chloro-4-fluorophenyl)pyridin-2-yl)-3-((1r,4r)-4-((2-methoxyethyl)amino)cyclohexyl)urea]
19.2%	69.1%	NC1CCC(NC(=O)Nc2cc(-c3ccc(F)cc3OC(F)(F)F)ccn2)CC1 (stereo not drawn) [Example 12, 1-((1r,4r)-4-aminocyclohexyl)-3-(4-(4-fluoro-2-trifluoromethoxyphenyl)pyridin-2-yl) urea]
-17.5%	72.3%	Cn1cc(-c2ccnc(NC(=O)NC3CCC(N)CC3)c2)cn1 (stereo not drawn) [Example 13, 1-((1r,4r)-4-aminocyclohexyl)-3-(4-(1-methyl-1H-pyrazol-4-yl)pyridin-2-yl) urea]
-7.6%	72.3%	COCCNC1CCC(NC(=O)Nc2cc(-c3cnn(C)c3)ccn2)CC1 (stereo not drawn) [Example 14, 1-((1r,4r)-4-((2-methoxyethyl)amino)cyclohexyl)-3-(4-(1-methyl-1H-pyrazol-4-yl)pyridine-2-yl) urea]
51.1%	91.5%	CC1(C)Cc2c(-c3ccnc(NC(=O)NC4CCC(N)CC4)c3)cnn2C1 (stereo not drawn) [Example 15, 1-((1r,4r)-4-aminocyclohexyl)-3-(4-(5,5-dimethyl-5,6-dihydro-4H-pyrrole [1,2-b]pyrazole-3-yl)pyridin-2-yl) urea]
72%	95.7%	CC(=O)NC1CCC(NC(=O)Nc2cc(-c3cnn4c3CC(C)(C)C4)ccn2)CC1 (stereo not drawn) [Example 16, 1-((1r,4r)-4-(3-(4-(5,5-dimethyl-5,6-dihydro-4H-pyrrolo[1,2-b]pyrazol-3-yl)pyridin-2-yl)ureido)cyclohexyl)acetamide]
68.2%	90.2%	COCCNC1CCC(NC(=O)Nc2cc(-c3cnn4c3CC(C)(C)C4)ccn2)CC1 (stereo not drawn) [Example 17, 1-(4-(5,5-dimethyl-5,6-dihydro-4H-pyrrolo[1,2-b]pyrazol-3-yl)pyridin-2-yl)-3-((1r,4r)-4-((2-methoxyethyl)amino)cyclohexyl)urea]
84%	86%	COc1cc(F)ccc1-c1cc(NC(=O)NC2CCC(N)CC2)ncc1Cl (stereo not drawn) [Example 18, 1-((1r,4r)-4-aminocyclohexyl)-3-(5-chloro-4-(4-fluoro-2-methoxyphenyl)pyridin-2-yl)urea]
57.1%	87.4%	COCCNC1CCC(NC(=O)Nc2cc(-c3ccc(F)cc3OC)c(Cl)cn2)CC1 (stereo not drawn) [Example 19, 1-(5-chloro-4-(4-fluoro-2-methoxyphenyl)pyridin-2-yl)-3-((1r,4r)-4-((2-methoxyethyl)amino)cyclohexyl)urea]
38.9%	88.3%	COc1cc(F)ccc1-c1cc(NC(=O)NC2CCC(NCCO)CC2)ncc1Cl (stereo not drawn) [Example 20, 1-(5-chloro-4-(4-fluoro-2-methoxyphenyl)pyridin-2-yl)-3-((1r,4r)-4-((2-hydroxyethyl)amino)cyclohexyl)urea]
45.2%	91%	COCC(C)NC1CCC(NC(=O)Nc2cc(-c3ccc(F)cc3OC)c(Cl)cn2)CC1 (stereo not drawn) [Example 21, 1-(5-chloro-4-(4-fluoro-2-methoxyphenyl)pyridin-2-yl)-3-((1r,4r)-4-((1-methoxypropan-2-yl)amino)cyclohexyl)urea]
62.9%	93.5%	COc1cc(F)ccc1-c1cc(NC(=O)NC2CCC(NC(C)=O)CC2)ncc1Cl (stereo not drawn) [Example 22, N-((1r,4r)-4-(3-(5-chloro-4-(4-fluoro-2-methoxyphenyl)pyridin-2-yl)ureido)cyclohexyl)acetamide]
37.2%	87.4%	COc1cc(F)ccc1-c1cc(NC(=O)NC2CCC(NC(C)C)CC2)ncc1Cl (stereo not drawn) [Example 23, 1-(5-chloro-4-(4-fluoro-2-methoxyphenyl)pyridin-2-yl)-3-((1r,4r)-4-(isopropylamino)cyclohexyl)urea]
37.8%	73.1%	COc1cc(F)ccc1-c1cc(NC(=O)NC2CCC(NC3CC3)CC2)ncc1Cl (stereo not drawn) [Example 24, 1-(5-chloro-4-(4-fluoro-2-methoxyphenyl)pyridin-2-yl)-3-((1r,4r)-4-(cyclopropylamino)cyclohexyl)urea]
28.7%	61.2%	COc1cc(F)ccc1-c1cc(NC(=O)NC2CCC(NC3CCOC3)CC2)ncc1Cl (stereo not drawn) [Example 25, 1-(5-chloro-4-(4-fluoro-2-methoxyphenyl)pyridin-2-yl)-3-((1r,4r)-4-((tetrahydrofuran-3-yl)amino)cyclohexyl)urea]
39.3%	82.5%	COc1cc(F)ccc1-c1cc(NC(=O)NC2CCC(NCCC(F)(F)F)CC2)ncc1Cl (stereo not drawn) [Example 26, 1-(5-chloro-4-(4-fluoro-2-methoxyphenyl)pyridin-2-yl)-3-((1r,4r)-4-((3,3,3-trifluoropropyl)amino)cyclohexyl)urea]
44.2%	78.4%	COc1cc(F)ccc1-c1cc(NC(=O)NC2CCC(NCCN(C)C)CC2)ncc1Cl (stereo not drawn) [Example 27, 1-(5-chloro-4-(4-fluoro-2-methoxyphenyl)pyridin-2-yl)-3-((1r,4r)-4-((2-(dimethylamino)ethyl)amino)cyclohexyl)urea]
29.5%	84.3%	COc1cc(F)ccc1-c1cc(NC(=O)NC2CCC(NC(=O)CN(C)C)CC2)ncc1Cl (stereo not drawn) [Example 28, N-((1r,4r)-4-(3-(5-chloro-4-(4-fluoro-2-methoxyphenyl)pyridin-2-yl)ureido)cyclohexyl)-2-(dimethylamino)acetamide]
19.4%	57%	COCCNC1CCC(NC(=O)Nc2cc(-c3ccc(F)cc3OC)c(C)cn2)CC1 (stereo not drawn) [Example 29, 1-(4-(4-fluoro-2-methoxyphenyl)-5-methylpyridin-2-yl)-3-((1r,4r)-4-((2-methoxyethyl)amino)cyclohexyl) urea]
23.1%	55.3%	COc1cc(F)ccc1-c1cc(NC(=O)NC2CCC(NC(C)=O)CC2)ncc1F (stereo not drawn) [Example 30, N-((1r,4r)-4-(3-(5-fluoro-4-(4-fluoro-2-methoxyphenyl)pyridin-2-yl)ureido)cyclohexyl)acetamide]
20.7%	51.3%	COc1cc(F)ccc1-c1cc(NC(=O)NC2CCC(NC(C)=O)CC2)ncc1C (stereo not drawn) [Example 31, N-((1r,4r)-4-(3-(5-methyl-4-(4-fluoro-2-methoxyphenyl)pyridin-2-yl)ureido)cyclohexyl)acetamide]
